According to patent US4064235A, “Dopamine derivative compounds, preparation thereof and medicine containing same” (Eisai Co., Ltd., priority 1975, dated 1977):

Key:
[1] = test system: renal blood flow rate; assay: Measurement of the renal blood flow increasing activity in anesthetized dogs; format: in vivo; details: for Duration Time of Activity / Renal Blood Flow Rate Increase Ratio (%): 1 mg/Kg/min into the crotch vein continuously over 3 minutes; for Renal Blood Flow Rate Increase Ratio (%): increase at highest flow rate relative to flow rate before administration; for intensity of the activity and activity duration compared with known compound A: dogs, 1 mg/Kg/min for 3 minutes
Protocol: Measurement of the renal blood flow increasing activity. Compounds Tested:
Crossbred adult dogs (irrespective of the sex) having a body weight of about 15 Kg were used.
The test animal was anesthetized by an intravenous injection of pentobarbital sodium salt (30 mg/Kg) and the abdominal region was fixed. The back region was opened and a probe of a rectangular wave electromagnetic flow meter (Model MF-26 manufactured by Nippon Koden K. K.) was attached to the artery of the left kidney to determine the renal blood flow rate (R. B. F.).
Each test compound was dissolved in distilled water and administered to the test animal from a vinyl resin fine tube inserted and fixed into the crotch vein. The amount administered was 1 mg/Kg/min. and the administration was conducted continuously over a period of 3 minutes.
The degree of increase of the renal blood flow rate by administration of the test compound was expressed in terms of the increase ratio (%), namely the ratio of the increase of the flow rate (when the flow rate was highest) to the flow rate before administration of the test compound. The duration of the activity was simultaneously examined.

[2] = test system: renal blood flow; assay: tracing experiment on renal blood flow promoting activity of isoleucyl dopamine; format: in vivo
Excerpt: Because of this specific activity, it has been considered to use dopamine for improving renal insufficiency accompanied by hyperpiesia or cardiac insufficiency and other similar diseases. However, since dopamine is promptly converted to norepinephrine or the like by metabolism and the activity is insufficient in duration, it has been difficult to put this compound into practical use.

[3] = test system: renal blood flow; details: cited from earlier work

## CC(=O)O.CC[C@H](C)[C@H](N)C(=O)NCCc1ccc(O)c(O)c1 [Known Compound A, N-L-Isoleucyl dopamine acetate]
[1]; anesthetized dogs
  Duration Time of Activity: 6 min
  Renal Blood Flow Rate Increase Ratio (%): 10%
[2]
  activity retention time compared with dopamine: longer than that of dopamine
  renal blood flow promoting activity: low
[3]; literature: Am. Chem. So., 165, Meet. MEDI. 11, 1973
  durability of renal blood flow increasing activity compared with dopamine: more durable than that of dopamine

## CC(=O)O.CCC(C)C(N)C(=O)NC(C(=O)NCCc1ccc(O)c(O)c1)C(C)C (stereo not drawn) [Compound A of Present Invention, n-l-isoleucylvalyl dopamine acetate]
[1]; anesthetized dogs
  Duration Time of Activity: 10 min
  Renal Blood Flow Rate Increase Ratio (%): 33%
[1]
  intensity of the activity and activity duration compared with known compound A: excellent over the known compound A

## CC(=O)O.CC(C)C[C@H](NC(=O)CNC(=O)CN)C(=O)NCCc1ccc(O)c(O)c1 [Compound D of Present Invention, N-Glycylglycyl-L-leucyl dopamine acetate]
[1]; anesthetized dogs
  Duration Time of Activity: 20 min
  Renal Blood Flow Rate Increase Ratio (%): 37%
[1]
  intensity of the activity and activity duration compared with known compound A: excellent over the known compound A

## CC(=O)O.NCC(=O)N1CCC[C@H]1C(=O)NCCc1ccc(O)c(O)c1 [Compound C of Present Invention, N-Glycyl-L-prolyl dopamine acetate]
[1]; anesthetized dogs
  Duration Time of Activity: 60 min
  Renal Blood Flow Rate Increase Ratio (%): 30%
[1]
  intensity of the activity and activity duration compared with known compound A: excellent over the known compound A

## N-Glycyl-L-glutamyl dopamine acetate [Compound B of Present Invention]
[1]; anesthetized dogs
  Duration Time of Activity: 60 min
  Renal Blood Flow Rate Increase Ratio (%): 33%
[1]
  intensity of the activity and activity duration compared with known compound A: excellent over the known compound A

## CC(=O)O.NCC(=O)NCC(=O)N1CCC[C@H]1C(=O)NCCc1ccc(O)c(O)c1 [Compound E of Present Invention, N-Glycylglycyl-L-prolyl dopamine acetate]
[1]; anesthetized dogs
  Duration Time of Activity: 30 min
  Renal Blood Flow Rate Increase Ratio (%): 36%
[1]
  intensity of the activity and activity duration compared with known compound A: excellent over the known compound A

## NCCc1ccc(O)c(O)c1 [dopamine]
[1]; anesthetized dogs
  renal blood flow rate change by administration: increased
[3]; literature: Circulation Research, vol. XVI, 1965
  activity of increasing the renal blood flow: specific activity of increasing the renal blood flow
